Test results as given in patent US8183272B2, “Indanyl compounds” (Daiichi Sankyo Company, Limited, priority 2008, dated 2012).

Each compound was assayed against T1, human calcium-sensing receptor (CaSR) (Homo sapiens, UniProt P41180) (assay: Inhibitory activity on calcium-sensing receptor (CaSR) using intracellular calcium increase as an indicator (FLIPR, CHO/hCaSR)). Conditions: CHO/hCaSR cells; intracellular Ca increase induced by CaCl2; test compound 1.05 to 10,000 nM.
T1 construct: expressed in transfected cells; host or cells: CHO cells (CHO/hCaSR)
T1 sequence (P41180 20-1078): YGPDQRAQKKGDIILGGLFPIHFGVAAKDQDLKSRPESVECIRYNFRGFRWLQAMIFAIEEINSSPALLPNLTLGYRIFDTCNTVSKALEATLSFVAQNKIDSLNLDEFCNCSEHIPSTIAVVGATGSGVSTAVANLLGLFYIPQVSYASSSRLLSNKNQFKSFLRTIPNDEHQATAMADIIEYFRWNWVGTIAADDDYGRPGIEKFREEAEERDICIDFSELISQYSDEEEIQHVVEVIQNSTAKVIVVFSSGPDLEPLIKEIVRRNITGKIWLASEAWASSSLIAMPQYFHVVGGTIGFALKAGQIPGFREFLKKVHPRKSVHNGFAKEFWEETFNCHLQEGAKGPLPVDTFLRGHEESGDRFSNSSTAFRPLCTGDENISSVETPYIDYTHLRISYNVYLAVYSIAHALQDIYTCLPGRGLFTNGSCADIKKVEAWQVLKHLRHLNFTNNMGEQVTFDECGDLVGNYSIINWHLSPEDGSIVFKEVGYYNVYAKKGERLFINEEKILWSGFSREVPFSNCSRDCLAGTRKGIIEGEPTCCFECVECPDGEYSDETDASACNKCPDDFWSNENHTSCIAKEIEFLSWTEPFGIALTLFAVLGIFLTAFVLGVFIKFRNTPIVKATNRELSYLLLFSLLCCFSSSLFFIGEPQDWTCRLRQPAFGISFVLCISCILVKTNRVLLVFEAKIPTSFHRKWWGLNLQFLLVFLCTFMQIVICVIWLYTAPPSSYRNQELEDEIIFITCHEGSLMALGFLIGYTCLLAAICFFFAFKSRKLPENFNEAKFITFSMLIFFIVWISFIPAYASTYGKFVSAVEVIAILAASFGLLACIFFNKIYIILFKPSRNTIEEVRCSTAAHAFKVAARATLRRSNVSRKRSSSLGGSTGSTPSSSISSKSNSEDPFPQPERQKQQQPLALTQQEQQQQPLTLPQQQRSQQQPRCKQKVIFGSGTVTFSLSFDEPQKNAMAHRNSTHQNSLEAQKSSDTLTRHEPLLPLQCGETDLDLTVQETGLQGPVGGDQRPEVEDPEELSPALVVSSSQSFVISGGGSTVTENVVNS
Format: cell-based
Experimental: Evaluation of inhibitory activity on calcium-sensing receptor (CaSR) using intracellular calcium increase as an indicator
The preparation which is prepared by adding CHO/hCaSR to F12 medium (manufactured by Invitrogen) containing 10% fetal bovine serum to have 2×10^5 cells/mL was applied to a 384-well in an amount of 50 μL/well, and then incubated overnight in a CO2 incubator. The culture supernatant was completely removed, the assay buffer (20 mM HEPES, HBSS (Ca and Mg free) containing 2.5 mM probenecid, pH 7.4) containing Calcium 3 (manufactured by Molecular Devices), i.e., a fluorescent intracellular calcium indicator, was added thereto in an amount of 25 μL/well, and the mixture was maintained for 1 hour in a CO2 incubator. Meanwhile, Calcium 3 was prepared according to the protocol enclosed in FLIPR Calcium 3 Assay Kit (manufactured by Molecular Devices). After maintaining it for 1 hour, a solution in which the test compound is prepared to have 2.1 to 20,000 nM (final concentration of 1.05 to 10,000 nM) by an assay buffer was added thereto in an amount of 25 μL/well, and maintained for 15 minutes in a CO2 incubator. Then, the CaCl2 solution prepared to have […] by using the assay buffer was added in an amount of 25 μL/well, and the resulting intracellular Ca increase (i.e., fluorescence intensity) was measured over time using a fluorescence imaging plate reader (FLIPR, manufactured by Molecular Devices). From the data obtained, the difference between the fluorescence intensity before the addition of CaCl2 solution and the maximum fluorescence intensity after the addition of CaCl2 solution was calculated, and the 50% inhibition concentration (IC50) of the test compound was obtained.

**Q.** Which IC50 does the source give for `C[C@@H](OC[C@H](O)CNC(C)(C)CC1Cc2ccccc2C1)c1c(F)cccc1CCC(=O)O` [31 low polarity, 3-{2-[(1R)-1-{[(2R)-3-{[1-(2,3-dihydro-1H-inden-2-yl)-2-methylpropan-2-yl]amino}-2-hydroxypropyl]oxy}ethyl]-3-fluorophenyl}propanoic acid] here?
**A.** ≤ 2.4 µM

**Q.** Which IC50 does the source give for `C[C@@H](OC[C@H](O)CNC(C)(C)CC1Cc2ccccc2C1)c1ccccc1CCCOCC(=O)O` [Example 85, (3-{2-[(1R)-1-{[(2R)-3-{[1-(2,3-Dihydro-1H-inden-2-yl)-2-methylpropan-2-yl]amino}-2-hydroxypropyl]oxy}ethyl]phenyl}propoxy)acetic acid] here?
**A.** ≤ 2.27 µM

**Q.** Which IC50 does the source give for `CCC[C@@H](OC[C@H](O)CNC(C)(C)CC1Cc2ccccc2C1)c1ccc(C)cc1CCC(=O)O` [Example 54] here?
**A.** ≤ 2.28 µM

**Q.** `C[C@@H](OC[C@H](O)CNC(C)(C)CC1Cc2ccccc2C1)c1ccc(C#N)cc1CCC(=O)O` [Example 25] was tested. Which IC50 did it give?
**A.** ≤ 2.37 µM

**Q.** How did the IC50 turn out when `CCC[C@@H](OC[C@H](O)CNC(C)(C)CC1Cc2ccccc2C1)c1cccc(OC)c1CCC(=O)O` [Example 55] was run?
**A.** ≤ 2.21 µM

**Q.** For `C[C@@H](OC[C@H](O)CNC(C)(C)CC1Cc2ccccc2C1)c1ccccc1CCCC(=O)O` [Example 2, 4-{2-[(1R)-1-{[(2R)-3-{[1-(2,3-Dihydro-1H-inden-2-yl)-2-methylpropan-2-yl]amino}-2-hydroxypropyl]oxy}ethyl]phenyl}butanoic acid], which IC50 is on record?
**A.** ≤ 2.42 µM

**Q.** `CC[C@@H](OC[C@H](O)CNC(C)(C)CC1Cc2ccccc2C1)c1cc(Cl)ccc1CCC(=O)O` [Example 73] was tested. Which IC50 did it give?
**A.** ≤ 2.25 µM

**Q.** How did the IC50 turn out when `C[C@@H](OC[C@H](O)CNC(C)(C)CC1Cc2ccccc2C1)c1cc(F)ccc1CCC(=O)O` [Example 9, 3-{2-[(1R)-1-{[(2R)-3-{[1-(2,3-Dihydro-1H-inden-2-yl)-2-methylpropan-2-yl]amino}-2-hydroxypropyl]oxy}ethyl]-4-fluorophenyl}propanoic acid] was run?
**A.** ≤ 2.4 µM

**Q.** With `C[C@@H](OC[C@H](O)CNC(C)(C)CC1Cc2ccccc2C1)c1cc(F)c(F)cc1CCCCC(=O)O` [Example 30] as the compound, how does the IC50 read?
**A.** ≤ 2.18 µM

**Q.** How did the IC50 turn out when `C[C@@H](OC[C@H](O)CNC(C)(C)CC1Cc2ccccc2C1)c1cc(F)c(Cl)cc1CCC(=O)O` [Example 34] was run?
**A.** ≤ 2.24 µM

**Q.** How did the IC50 turn out when `C[C@@H](OC[C@H](O)CNC(C)(C)CC1Cc2ccccc2C1)c1ccccc1CCCCCC(=O)O` [Example 67] was run?
**A.** ≤ 2.28 µM

**Q.** How did the IC50 turn out when `CC[C@@H](OC[C@H](O)CNC(C)(C)CC1Cc2ccccc2C1)c1ccc(Cl)cc1CCC(=O)O` [Example 74] was run?
**A.** ≤ 2.25 µM

**Q.** With `Cc1cc(CCCCC(=O)O)c([C@@H](C)OC[C@H](O)CNC(C)(C)CC2Cc3ccccc3C2)cc1F` [Example 23] as the compound, how does the IC50 read?
**A.** ≤ 2.2 µM

**Q.** With `C[C@@H](OC[C@H](O)CNC(C)(C)CC1Cc2ccccc2C1)c1ccccc1CC(C)(C)C(=O)O` [Example 82, 3-{2-[(1R)-1-{[(2R)-3-{[1-(2,3-Dihydro-1H-inden-2-yl)-2-methylpropan-2-yl]amino}-2-hydroxypropyl]oxy}ethyl]phenyl}-2,2-dimethylpropanoic acid] as the compound, how does the IC50 read?
**A.** ≤ 2.35 µM

**Q.** `CC(C)Oc1cccc([C@@H](C)OC[C@H](O)CNC(C)(C)CC2Cc3ccccc3C2)c1CCCCC(=O)O` [Example 65] was tested. Which IC50 did it give?
**A.** ≤ 2.09 µM

**Q.** For `CC[C@@H](OC[C@H](O)CNC(C)(C)CC1Cc2ccccc2C1)c1ccc(C)cc1CCC(=O)O` [Example 40], which IC50 is on record?
**A.** ≤ 2.35 µM

**Q.** With `C[C@@H](OC[C@H](O)CNC(C)(C)CC1Cc2ccccc2C1)c1ccccc1CCOCC(=O)O` [Example 83, (2-{2-[(1R)-1-{[(2R)-3-{[1-(2,3-Dihydro-1H-inden-2-yl)-2-methylpropan-2-yl]amino}-2-hydroxypropyl]oxy}ethyl]phenyl}ethoxy)acetic acid] as the compound, how does the IC50 read?
**A.** ≤ 2.34 µM

**Q.** `Cc1cccc([C@@H](C)OC[C@H](O)CNC(C)(C)CC2Cc3ccccc3C2)c1CCC(=O)O` [Example 42] was tested. Which IC50 did it give?
**A.** ≤ 2.42 µM

**Q.** Which IC50 does the source give for `CC(OC[C@H](O)CNC(C)(C)CC1Cc2ccccc2C1)c1c(Cl)cccc1CCC(=O)O` (stereo partly shown) [Example 33] here?
**A.** ≤ 2.32 µM

**Q.** Which IC50 does the source give for `Cc1cccc(CCC(=O)O)c1C(C)OC[C@H](O)CNC(C)(C)CC1Cc2ccccc2C1` (stereo partly shown) [Example 32] here?
**A.** ≤ 2.42 µM

**Q.** For `C[C@@H](OC[C@H](O)CNC(C)(C)CC1Cc2ccccc2C1)c1ccc(Cl)cc1CCCCC(=O)O` [Example 72], which IC50 is on record?
**A.** ≤ 2.19 µM

**Q.** With `CC(OC[C@H](O)CNC(C)(C)CC1Cc2ccccc2C1)c1c(CCC(=O)O)ccc(F)c1F` (stereo partly shown) [Example 36] as the compound, how does the IC50 read?
**A.** ≤ 2.31 µM

**Q.** For `Cc1cc(-c2ccccc2[C@@H](C)OC[C@H](O)CNC(C)(C)CC2Cc3ccccc3C2)ccc1C(=O)O` [Example 3, 2′-[(1R)-1-{[(2R)-3-{[1-(2,3-Dihydro-1H-inden-2-yl)-2-methylpropan-2-yl]amino}-2-hydroxypropyl]oxy}ethyl]-3-methylbiphenyl-4-carboxylic acid], which IC50 is on record?
**A.** ≤ 2.19 µM

**Q.** `CC(C)(CC1Cc2ccccc2C1)NC[C@@H](O)CO[C@@H](c1ccccc1CCC(=O)O)C1CC1` [Example 29] was tested. Which IC50 did it give?
**A.** ≤ 2.36 µM

**Q.** With `C[C@@H](OC[C@H](O)CNC(C)(C)CC1Cc2ccccc2C1)c1cccc(Cl)c1CCC(=O)O` [Example 71] as the compound, how does the IC50 read?
**A.** ≤ 2.32 µM

**Q.** `CCC[C@@H](OC[C@H](O)CNC(C)(C)CC1Cc2ccccc2C1)c1ccccc1CCC(=O)O` [Example 21] was tested. Which IC50 did it give?
**A.** ≤ 2.35 µM

**Q.** For `CCC[C@@H](OC[C@H](O)CNC(C)(C)CC1Cc2ccccc2C1)c1cccc(C)c1CCC(=O)O` [Example 52], which IC50 is on record?
**A.** ≤ 2.28 µM

**Q.** With `COc1cccc([C@@H](C)OC[C@H](O)CNC(C)(C)CC2Cc3ccccc3C2)c1CCC(=O)O` [Example 17] as the compound, how does the IC50 read?
**A.** ≤ 2.34 µM

**Q.** Which IC50 does the source give for `C[C@@H](OC[C@H](O)CNC(C)(C)CC1Cc2ccccc2C1)c1ccc(C(F)(F)F)cc1CCC(=O)O` [Example 11, 3-{2-[(1R)-1-{[(2R)-3-{[1-(2,3-Dihydro-1H-inden-2-yl)-2-methylpropan-2-yl]amino}-2-hydroxypropyl]oxy}ethyl]-5-(trifluoromethyl)phenyl}propanoic acid] here?
**A.** ≤ 2.17 µM

**Q.** With `CC[C@@H](OC[C@H](O)CNC(C)(C)CC1Cc2ccccc2C1)c1cccc(F)c1CCC(=O)O` [Example 39] as the compound, how does the IC50 read?
**A.** ≤ 2.33 µM

**Q.** `C[C@@H](OC[C@H](O)CNC(C)(C)CC1Cc2ccccc2C1)c1ccccc1CCC(=O)O` [Example 1, 3-{2-[(1R)-1-{[(2R)-3-{[1-(2,3-Dihydro-1H-inden-2-yl)-2-methylpropan-2-yl]amino}-2-hydroxypropyl]oxy}ethyl]phenyl}propanoic acid] was tested. Which IC50 did it give?
**A.** ≤ 2.5 µM

**Q.** How did the IC50 turn out when `CCC[C@@H](OC[C@H](O)CNC(C)(C)CC1Cc2ccccc2C1)c1cccc(F)c1CCC(=O)O` [Example 53] was run?
**A.** ≤ 2.27 µM

**Q.** Which IC50 does the source give for `COc1cccc([C@@H](C)OC[C@H](O)CNC(C)(C)CC2Cc3ccccc3C2)c1CCCCC(=O)O` [Example 37] here?
**A.** ≤ 2.21 µM

**Q.** Which IC50 does the source give for `CC[C@@H](OC[C@H](O)CNC(C)(C)CC1Cc2ccccc2C1)c1cc(F)c(C)cc1CCC(=O)O` [Example 60] here?
**A.** ≤ 2.27 µM
